Source: ChEMBL document CHEMBL5154805, “From tryptophan-based amides to tertiary amines: Optimization of a butyrylcholinesterase inhibitor series” (Eur J Med Chem, 2022)

Tests used:
Acetylcholinesterase [1] = target: T1, Acetylcholinesterase (Mus musculus, UniProt P21836); experiment: Inhibition of mouse recombinant AChE assessed as reduction in cholinesterase activity using acetylthiocholine iodide as substrate preincubated for 1 to 30 mins followed by substrate addition by Ellman's method
T1 sequence (P21836 whole entry): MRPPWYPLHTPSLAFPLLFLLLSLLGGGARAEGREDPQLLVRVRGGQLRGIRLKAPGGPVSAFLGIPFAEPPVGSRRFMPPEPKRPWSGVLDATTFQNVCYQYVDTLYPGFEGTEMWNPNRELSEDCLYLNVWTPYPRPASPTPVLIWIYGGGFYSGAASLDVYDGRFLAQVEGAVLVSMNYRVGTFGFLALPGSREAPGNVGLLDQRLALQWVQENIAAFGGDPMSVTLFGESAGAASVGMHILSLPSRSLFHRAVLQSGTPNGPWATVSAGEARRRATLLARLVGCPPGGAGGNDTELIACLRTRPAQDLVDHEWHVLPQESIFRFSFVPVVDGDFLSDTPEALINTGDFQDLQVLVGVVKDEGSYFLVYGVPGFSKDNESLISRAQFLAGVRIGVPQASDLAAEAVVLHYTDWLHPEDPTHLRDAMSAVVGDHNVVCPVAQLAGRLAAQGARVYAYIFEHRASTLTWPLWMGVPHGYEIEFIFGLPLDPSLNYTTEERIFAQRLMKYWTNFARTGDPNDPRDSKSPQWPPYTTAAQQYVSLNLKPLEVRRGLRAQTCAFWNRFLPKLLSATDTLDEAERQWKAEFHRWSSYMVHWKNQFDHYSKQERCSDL

Acetylcholinesterase [2] = target: T2, Acetylcholinesterase (Homo sapiens, UniProt P22303); experiment: Inhibition of recombinant human AChE assessed as residual activity at 3 uM using acetylthiocholine iodide as substrate preincubated for 1 to 30 mins followed by substrate addition by Ellman's method relative to control; conditions: time 1-30 min
Cholinesterase [3] = target: T3, Cholinesterase (Homo sapiens, UniProt P06276)
Description: Inhibition of recombinant human BChE using butyrylthiocholine iodide as substrate preincubated for 1 to 30 mins followed by substrate addition by Ellman's method

Acetylcholinesterase [4] = target: T2, Acetylcholinesterase; experiment: Inhibition of recombinant human AChE assessed as residual activity at 100 uM using acetylthiocholine iodide as substrate preincubated for 1 to 30 mins followed by substrate addition by Ellman's method relative to control; conditions: time 1-30 min
Acetylcholinesterase [5] = target: T2, Acetylcholinesterase; experiment: Inhibition of recombinant human AChE using acetylthiocholine iodide as substrate preincubated for 1 to 30 mins followed by substrate addition by Ellman's method
Cholinesterase [6] = target: T3, Cholinesterase; remark: listed apart in the source
Description: Binding affinity to human recombinant BChE assessed as decarbamoylation rate by measuring half life

[7] = target: Cholinesterases; ACHE & BCHE (Homo sapiens) (UniProt P06276+P22303); experiment: Selectivity ratio of IC50 for recombinant human AChE to IC50 for recombinant human BChE; assay type: protein assay
Sequence of Cholinesterases; ACHE & BCHE (Homo sapiens) (P06276 whole entry, looked up): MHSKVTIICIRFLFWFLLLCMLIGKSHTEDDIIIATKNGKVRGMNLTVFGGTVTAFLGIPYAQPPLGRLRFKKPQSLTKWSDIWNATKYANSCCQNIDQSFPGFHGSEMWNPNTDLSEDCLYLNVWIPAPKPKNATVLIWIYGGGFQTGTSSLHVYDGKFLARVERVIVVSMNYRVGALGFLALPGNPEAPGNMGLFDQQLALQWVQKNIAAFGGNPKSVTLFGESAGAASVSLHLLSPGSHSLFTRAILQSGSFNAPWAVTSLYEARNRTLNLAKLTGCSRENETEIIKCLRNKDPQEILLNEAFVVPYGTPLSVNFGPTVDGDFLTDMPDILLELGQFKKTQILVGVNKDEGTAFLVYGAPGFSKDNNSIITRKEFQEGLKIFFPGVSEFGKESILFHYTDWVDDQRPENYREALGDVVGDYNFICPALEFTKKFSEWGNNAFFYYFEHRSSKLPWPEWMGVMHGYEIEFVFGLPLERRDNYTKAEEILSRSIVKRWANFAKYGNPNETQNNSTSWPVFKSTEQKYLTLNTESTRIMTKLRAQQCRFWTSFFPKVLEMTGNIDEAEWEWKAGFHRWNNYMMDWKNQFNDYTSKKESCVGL
Sequence of Cholinesterases; ACHE & BCHE (Homo sapiens) (P22303 whole entry, looked up): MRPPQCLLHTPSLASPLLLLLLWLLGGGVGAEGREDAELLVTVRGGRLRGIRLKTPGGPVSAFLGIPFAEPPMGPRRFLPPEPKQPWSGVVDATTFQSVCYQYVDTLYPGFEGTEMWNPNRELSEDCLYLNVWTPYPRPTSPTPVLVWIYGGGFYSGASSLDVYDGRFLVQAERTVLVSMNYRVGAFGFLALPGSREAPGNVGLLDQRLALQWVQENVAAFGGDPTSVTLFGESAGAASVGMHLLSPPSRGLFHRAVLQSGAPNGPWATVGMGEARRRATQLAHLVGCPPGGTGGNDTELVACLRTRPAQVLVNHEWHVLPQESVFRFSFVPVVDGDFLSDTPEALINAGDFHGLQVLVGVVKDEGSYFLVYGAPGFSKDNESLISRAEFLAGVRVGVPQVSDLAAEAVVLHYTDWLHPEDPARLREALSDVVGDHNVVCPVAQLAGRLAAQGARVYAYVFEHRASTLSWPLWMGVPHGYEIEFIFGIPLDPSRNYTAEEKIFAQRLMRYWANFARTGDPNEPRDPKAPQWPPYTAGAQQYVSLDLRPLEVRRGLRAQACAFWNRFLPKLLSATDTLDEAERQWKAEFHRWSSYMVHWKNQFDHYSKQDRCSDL

T2 sequence (P22303 whole entry): as the sequence (P22303 whole entry, looked up) above
T3 sequence (P06276 whole entry): as the sequence (P06276 whole entry, looked up) above

| Structure (SMILES) | Activity (Acetylcholinesterase [2]) [%] | IC50 (Cholinesterase [3]) [nM] | further results |
| --- | --- | --- | --- |
| CCCCN[C@H](CNCCC1CCCCCC1)Cc1c[nH]c2ccccc12 | > 50 | 10.1 | IC50 (Acetylcholinesterase [1]): 12400 nM |
| CN(C)c1ccc(/C=C/CN(CCCc2c[nH]c3ccccc23)CCC2CCCCCC2)cc1 | > 50 | 4.6 | Activity (Acetylcholinesterase [4]): 54% |
| CCCCN(C)[C@@H](Cc1c[nH]c2ccccc12)CN(C)CCC1CCCCCC1 | > 50 | 3 | IC50 (Acetylcholinesterase [1]): 23400 nM |
| CCCCN(CCOc1cccc2c(OC(=O)N(C)C)cccc12)CCC1CCCCCC1 | > 50 | 5.8 | IC50 (Acetylcholinesterase [5]): 47.9 nM |
| CN(CCc1c[nH]c2ccccc12)CCC1CCCCCC1 | > 50 | – | – |
| CCCCN(CCc1c[nH]c2ccccc12)CCC1CCCCCC1 | > 50 | 5 | – |
| CCCCN(CCCc1c[nH]c2ccc(F)cc12)CCC1CCCCCC1 | > 50 | 6 | – |
| CCCCN(CCc1c[nH]c2c(OC(=O)C(C)C)cccc12)CCC1CCCCCC1 | > 50 | – | IC50 (Acetylcholinesterase [5]): 1370 nM; T1/2 (Cholinesterase [6]): 15.2 h |
| CCCCN(CCC1CCCCCC1)Cc1c[nH]c2cc(C#N)ccc12 | > 50 | 83.7 | – |
| CN(C)C1CCC(CCN(CCCc2c[nH]c3ccccc23)CCC2CCCCCC2)CC1 (stereo in doubt; 32b) [listing 1 of 2 here] | – | 4.1 | IC50 (Acetylcholinesterase [5]): 8570 nM |
| CCCC[N+]([O-])(CCc1c[nH]c2ccccc12)CCC1CCCCCC1 (centres undefined) | > 50 | 107 | Activity (Acetylcholinesterase [4]): 86% |
| CCCCN(CCc1c[nH]c2ccc(O)cc12)CCC1CCCCCC1 | > 50 | 33.5 | Activity (Acetylcholinesterase [4]): 79% |
| CN1CCN(CCC2CCCCCC2)C[C@@H]1Cc1c[nH]c2ccccc12 | > 50 | 10.5 | Activity (Acetylcholinesterase [4]): 39% |
| CCCCN(CCCc1c[nH]c2ccccc12)CCC1CCN(Cc2ccccc2)CC1 | > 50 | 29.3 | IC50 (Acetylcholinesterase [5]): 7840 nM |
| CCCCN(CCC1CCCCCC1)Cc1cc2ccccc2cc1O | > 50 | 33.7 | IC50 (Acetylcholinesterase [5]): 18600 nM |
| CCCCN(CCCc1cc2ccccc2[nH]1)CCC1CCCCCC1 | > 50 | 4.7 | Activity (Acetylcholinesterase [4]): 74% |
| CCCCN(CCC1CCCCCC1)Cc1c[nH]c2ccccc12 | > 50 | 13.3 | – |
| CCCCN(CCOc1ccc2ccc(OC(=O)N(C)C)cc2c1)CCC1CCCCCC1 | > 50 | 11.7 | – |
| CN(CCC1CCN(Cc2ccccc2)CC1)Cc1c[nH]c2ccccc12 | > 50 | 1710 | IC50 (Acetylcholinesterase [5]): 33900 nM |
| c1ccc2c(c1)CCC2CCN(CCCc1c[nH]c2ccccc12)CCC1CCCCCC1 (centres undefined) | > 50 | 6.3 | – |
| CCCCN(CCCc1c[nH]c2ccccc12)CCC1CCCCCC1 | > 50 | 2.4 | – |
| CN(C)C1CCC(CCN(CCCc2c[nH]c3ccccc23)CCC2CCCCCC2)CC1 (stereo in doubt; 32a) [listing 1 of 2 here] | – | 1.9 | IC50 (Acetylcholinesterase [5]): 12600 nM |
| CN(C)C1CCC(CCN(CCCc2c[nH]c3ccccc23)CCC2CCCCCC2)CC1 (stereo in doubt; 32a) [listing 2 of 2 here] | > 50 | – | – |
| CCCCN(CCCc1cccc2ccccc12)CCC1CCCCCC1 | > 50 | 1.9 | – |
| CCCCN(CCCc1c[nH]c2ccccc12)CCC1CCC(N(C)C)CC1 (stereo in doubt; 33a) [listing 1 of 2 here] | – | 205 | – |
| CN(C)C1CCC(CCN(CCCc2c[nH]c3ccccc23)CCC2CCCCCC2)CC1 (stereo in doubt; 32b) [listing 2 of 2 here] | > 50 | – | – |
| CCCCN(CCC1CCCCCC1)Cc1cc2ccccc2cc1OC(=O)N(C)C | > 50 | 2.2 | – |

| Structure (SMILES) | Activity (Acetylcholinesterase [2]) [%] | IC50 (Cholinesterase [3]) [nM] | further results |
| --- | --- | --- | --- |
| CCCCN(CCc1c(-c2ccccc2OC(=O)N(C)C)[nH]c2ccccc12)CCC1CCCCCC1 | > 50 | 5.4 | – |
| CCCCN(CCC1CCCCCC1)Cc1cc(O)c2ccccc2c1 | > 50 | 4.7 | – |
| CCCCN(CCC1CCCCCC1)Cc1c[nH]c2ncccc12 | > 50 | 83 | Activity (Acetylcholinesterase [4]): 57% |
| c1ccc2c(CCNCCC3CCCCCC3)c[nH]c2c1 | > 50 | 31.5 | – |
| CCCCN(CCC1CCCCCC1)Cc1cn(OC(=O)N(C)C)c2ccccc12 | > 50 | 133 | IC50 (Acetylcholinesterase [5]): 152 nM |
| CCCCN(CCc1cn(C(=O)N(C)C)c2ccccc12)CCC1CCCCCC1 | > 50 | 0.87 | – |
| CCCCN(CCCc1c[nH]c2ccccc12)CCC1CCC(N(C)C)CC1 (stereo in doubt; 33a) [listing 2 of 2 here] | > 50 | – | – |
| CCCCN(CCc1c[nH]c2ccc(OC(=O)N(C)C)cc12)CCC1CCCCCC1 | > 50 | 6.9 | – |
| CCCCN(CCc1c(-c2ccccc2O)[nH]c2ccccc12)CCC1CCCCCC1 | > 50 | 16.8 | – |
| CCCCN(CCC1CCCCCC1)Cc1cc(OC(=O)N(C)C)c2ccccc2c1 | > 50 | 2.4 | – |
| CCCCN(CCC1CCCCCC1)Cc1c[nH]c2cc(Br)ccc12 | > 50 | 3.6 | – |
| CCCCN(CCC1CCCCCC1)Cc1ccc(OC(=O)N(C)C)c2ccccc12 | > 50 | 1.9 | IC50 (Acetylcholinesterase [5]): 101 nM |
| CCCC[N+](C)(CCCc1c[nH]c2ccccc12)CCC1CCCCCC1 (centres undefined) | > 50 | 2.3 | IC50 (Acetylcholinesterase [5]): 23200 nM |
| CCCCN(CCCC1CCNc2ccccc21)CCC1CCCCCC1 (centres undefined) | > 50 | 54.8 | Activity (Acetylcholinesterase [4]): 65% |
| c1ccc2c(CCCN(CCC3CCCCCC3)CCC3CCCCC3)c[nH]c2c1 | > 50 | 4.9 | – |
| CCCCN(CCc1c[nH]c2cc(OC(=O)N(C)C)ccc12)CCC1CCCCCC1 | > 50 | – | T1/2 (Cholinesterase [6]): 14.8 h |
| CCCCN(CCc1c[nH]c2cc(O)ccc12)CCC1CCCCCC1 | > 50 | – | IC50 (Acetylcholinesterase [5]): 70600 nM |
| CCCCN(CCCc1c[nH]c2ccccc12)CCC1CCC(N(C)C)CC1 (stereo in doubt; 33b) [listing 1 of 2 here] | – | 214 | – |
| CN(CCC1CCCCCC1)Cc1cccc2[nH]ccc12 | > 50 | 349 | – |
| CCCCN(CCc1c[nH]c2c(O)cccc12)CCC1CCCCCC1 | > 50 | – | Activity (Acetylcholinesterase [4]): 69% |
| CCCCN1CCN(CCCC2CCCCCC2)C[C@@H]1Cc1c[nH]c2ccccc12 | > 50 | 5 | IC50 (Acetylcholinesterase [1]): 10300 nM; Ratio IC50 [7]: > 1000 |
| CN(CCC1CCCCCC1)Cc1c[nH]c2ccccc12 | > 50 | 60.4 | IC50 (Acetylcholinesterase [5]): 25200 nM |
| CCCCN(CCCc1ccc2ccccc2c1)CCC1CCCCCC1 | > 50 | 5.1 | Activity (Acetylcholinesterase [4]): 56% |
| CCCCN1CN(CCC2CCCCCC2)C[C@@H]1Cc1c[nH]c2ccccc12 | > 50 | 8.7 | IC50 (Acetylcholinesterase [1]): 11000 nM; Ratio IC50 [7]: > 1000 |
| CCCCN(CCCc1c[nH]c2ccccc12)CCC1CCC(N(C)C)CC1 (stereo in doubt; 33b) [listing 2 of 2 here] | > 50 | – | – |
| CN(CCC1CCCCCC1)Cc1c(-c2nnn[nH]2)[nH]c2ccccc12 | > 50 | 929 | – |
| CCCCN(CCC1CCCCCC1)CCC1CCc2ccccc21 (centres undefined) | > 50 | 6.5 | – |
